Where two headings read alike, the source gives them in different places.
Tests used:
[1] = tested on: Streptococcus pyogenes T18P; type: cell-based, S. pyogenes; settings: GML 10 and 20 ug/ml
[2] = tested on: rabbit RBCs; type: cell-based
[3] = tested on: human RBCs; type: cell-based
[4] = tested on: rabbit RBCs; test: Streptolysin O-induced hemolysis on RBC-containing agar plates; type: cell-based; settings: GML 10 μg/ml in agar; Group A Streptococci stabbed into agar
Description: GML (10 μg/ml) was incorporated into culture plates containing solid agar and rabbit RBCs suspended in the agar. The effect of GML on. streptolysin O-induced hemolysis was tested by stabbing the Group A Streptococci into the agar so as to permit the anaerobic growth of the bacteria beneath the surface of the agar and thereby allow streptolysin O to function.

[5] = tested on: rabbit RBCs
[6] = tested on: HIV-1; type: cell-based

Compound	number of bacteria in the epithelial cells [1]	lysis of RBCs by hemolysin [2]	lysis of human RBCs by the B. anthracis exotoxin ([3]; GML 1 μg/ml)	lysis of human RBCs by the B. anthracis exotoxin ([3]; GML 10 μg/ml)	streptolysin O-induced hemolysis of RBCs [4]	RBC lysis by GML alone [5]	lysis of rabbit RBCs by the B. anthracis exotoxin ([5]; GML 5 μg/ml)	lysis of rabbit RBCs by the B. anthracis exotoxin ([5]; GML 10 μg/ml)	cells expressing p24 [6]	total number of cells in the samples [6]	Absorbance at 410 nm [2]	lysis of RBCs [2]
CCCCCCCCCCCC(=O)OCC(O)CO (stereo not drawn) [GML, glycerol monolaurate]	dramatic decreases	completely prevented	partially inhibited	completely inhibited	completely prevented	did not cause RBC lysis	partially inhibited	almost completely inhibited	rare and no	significantly less	–	–
α-hemolysin	–	–	–	–	–	–	–	–	–	–	0.97	complete cell lysis

Reference: patent publication US20070276049A1 (priority 2003, published 2007)
